These results are taken from paper PMC4161306, “Regulation of Arabidopsis Flowering by the Histone Mark Readers MRG1/2 via Interaction with CONSTANS to Modulate FT Expression” (PLoS Genetics, 2014).

In experiment [1] the test system is chromodomain of MRG1 (His-MRG1N). The experiment can be described thus: Dot-blot / pull-down binding assay, His-MRG1N with methylated H3 peptides. Also on record: species or system Arabidopsis. The following applies: Figure 1A, N-terminal His-tagged chromodomain, peptides residues 1–21 (K4, K9) or 21–44 (K27, K36). The protocol: (§1) For the dot-blot binding assay, MRG1N (1–321, AT4G37280) and MRG2N (1–369, AT1G02740) cDNA were amplified by primers MRG1-1/MRG1-2 and MRG2-1/MRG2-2, respectively, and cloned into a pET-30a vector (Novagen, www.novagen.com). Site mutation was generated using a Takara MutanBEST Kit (http://www.takara-bio.com) with primers MRG2-3/MRG2-4. The in vitro binding assay of the chromodomain containing proteins with the histone peptides were performed as described previously. Methylated H3K4 (H3K4me1/2/3, residues 1–21), H3K9 (H3K9me1/2/3, residues 1–21), H3K27 (H3K27me1/2/3, residues 21–44), and H3K36 (H3K36me1/2/3, residues 21–44) peptides were synthesized by Scilight Biotechnology (http://www.scilight-peptide.com). Anti-monomethyl-H3K4 (07-436), anti-dimethyl-H3K4 (07-030), anti-trimethyl-H3K4 (07-473), anti-trimethyl-H3K9 (07-442), and anti-trimethyl-H3K27 (07-449) were purchased from Millipore (http://www.millipore.com), and anti-monomethyl-H3K36 (ab9048), anti-dimethyl-H3K36 (ab9049), and anti-trimethyl-H3K36 (ab9050) were purchased from Abcam (http://www.abcam.com).

The subject of experiment [2] is chromodomain of MRG2 (His-MRG2N). The experiment can be described thus: Dot-blot / pull-down binding assay, His-MRG2N with methylated H3 peptides. Also on record: species or system Arabidopsis. The following applies: Figure 1A, N-terminal His-tagged chromodomain, peptides residues 1–21 (K4, K9) or 21–44 (K27, K36). The protocol: as §1
For experiment [3], the system named is Y87A substitution in MRG2 chromodomain (His-MRG2N(Y87A)). In words: Dot-blot binding assay, His-MRG2N(Y87A) with methylated H3 peptides. The arrangement: species or system Arabidopsis. The following applies: Figure 7B; Tyr87Ala mutation in MRG2. Here is the method: as §1
In the next experiment the test system is EAF3. The following applies: ref [29]; cited from earlier work. From the text:
Firstly, via their chromodomain, MRG1/2 proteins act as readers that recognize methylated H3K4 and H3K36.

A short description of experiment [4]: In vitro peptide pull-down from nuclear extracts with mass spectrometry. In kind it is binding, Arabidopsis. The following applies: biotinylated H3 peptides (amino acids 21 to 44) on streptavidin-coated beads. The protocol:
An in vitro peptide pull-down assay was used to identify the proteins that bind to histone H3 tail methylated at K36. Biotinylated histone H3 peptides (amino acids 21 to 44), with either unmethylated (control) or tri-methylated K36, were immobilized on the streptavidin-coated beads and incubated with Arabidopsis nuclear extracts. […] Members in this group have the same domain organization, with a chromodomain (chromatin organization modifier domain) near the N-terminus, and a MRG domain near the C-terminus (Figure S1). MRG2 has a homolog in Arabidopsis, MRG1, which shares with MRG2 49% identity and 65% similarity at the amino acid sequence level.

As to “H3K36me3: methylated H3K36 peptide, residues 21–44 (dot-blot)”, the “binding to chromodomain of MRG1” value in experiment [1] was “could bind”. In experiment [2], the “binding to chromodomain of MRG2” value is listed as “could bind”. In experiment [3], the “association with MRG2 Y87A” value is on record as “disrupted its association”. In addition, the “binding to EAF3” value with EAF3 is on record as “bind”.
“H3 peptides tri-methylated at K36: Biotinylated histone H3 peptides (amino acids 21 to 44) with tri-methylated K36”: the “protein bound from nuclear extract” value in experiment [4] is listed as “identified MRG2”.
“H3K4me3: methylated H3K4 peptide, residues 1–21 (dot-blot), Scilight Biotechnology”: the “binding to chromodomain of MRG1” value in experiment [1] was “could bind”. Further, in experiment [2], the “binding to chromodomain of MRG2” value is on record as “could bind”. Besides, the “association with MRG2 Y87A” value in experiment [3] was “disrupted its association”. Moreover, in the experiment on EAF3, the “binding to EAF3” value is “only very weakly”.
In the case of “H3K36me2: methylated H3K36 peptide, residues 21–44 (dot-blot)”, the “binding to chromodomain of MRG1” value in experiment [1] is given as “could bind”. For the same substance, the “binding to chromodomain of MRG2” value in experiment [2] is on record as “could bind”.
As for “H3K4me2: methylated H3K4 peptide, residues 1–21 (dot-blot)”, the “binding to chromodomain of MRG1” value in experiment [1] is listed as “could bind”. Also, the “binding to chromodomain of MRG2” value in experiment [2] is reported as “could bind”.
“mono-methylated H3K4: methylated H3K4 peptide, residues 1–21 (dot-blot)”: the “binding to chromodomain of MRG1” value in experiment [1] is on record as “not”.
Still for that read-out and setting: the same measure for “mono-methylated H3K36: methylated H3K36 peptide, residues 21–44 (dot-blot)”: “not”.
